In patent US20120178915A1, “PYRIMIDINE DERIVATIVES AND ANALOGS, PREPARATION METHOD AND USE THEREOF” (priority 2009, published 2012):
Converted amounts (≈) assume the structure as drawn. Read-outs that look alike come from different tables or passages of the source.

Experiments:
Gram-positive Bacteria = type: cell-based; conditions: the majority of Bacillus cereus, Bacillus subtilis and Enterococcus faecalis
Bacillus cereus 2 = assay: microbe, parasite or virus in culture; type: cell-based; conditions: 37° C., 24 h, read-out: Minimum Inhibitory Concentration, MIC
Bacillus cereus 246 = assay: microbe, parasite or virus in culture; type: cell-based; conditions: 37° C., 24 h, read-out: Minimum Inhibitory Concentration, MIC
Bacillus subtilis 82 = assay: microbe, parasite or virus in culture; type: cell-based; conditions: 37° C., 24 h, read-out: Minimum Inhibitory Concentration, MIC
Bacillus subtilis 168 = assay: microbe, parasite or virus in culture; type: cell-based; conditions: 37° C., 24 h, read-out: Minimum Inhibitory Concentration, MIC
[1] = test system: Enterococcus faecalis 29212; assay: microbe, parasite or virus in culture; type: cell-based; conditions: 37° C., 24 h, read-out: Minimum Inhibitory Concentration, MIC
[2] = test system: Enterococcus faecalis 51299; assay: microbe, parasite or virus in culture; type: cell-based; conditions: Enterococcus faecalis, 51299, 24 h, read-out: Minimum Inhibitory Concentration, MIC
[3] = test system: Enterococcus faecalis 19433; assay: microbe, parasite or virus in culture; type: cell-based; conditions: 37° C., 24 h, read-out: Minimum Inhibitory Concentration, MIC
[4] = test system: Enterococcus faecalis F2518 (VRE); assay: microbe, parasite or virus in culture; type: cell-based; conditions: 24 h, read-out: Minimum Inhibitory Concentration, MIC
[5] = test system: Enterococcus fecal F631 (VRE); assay: organism not typed; type: cell-based; conditions: 24 h, read-out: Minimum Inhibitory Concentration, MIC
[6] = test system: Enterococcus faecalis 1513 (VRE); assay: microbe, parasite or virus in culture; type: cell-based; conditions: 24 h, read-out: Minimum Inhibitory Concentration, MIC
[7] = test system: Enterococcus faecalis 583 (VRE); assay: microbe, parasite or virus in culture; type: cell-based; conditions: 24 h, read-out: Minimum Inhibitory Concentration, MIC
[8] = test system: Staphylococcus aureus 29231; assay: microbe, parasite or virus in culture; type: cell-based; conditions: 37° C., 24 h, read-out: Minimum Inhibitory Concentration, MIC
[9] = test system: Staphylococcus aureus 43300 (MRSA); assay: microbe, parasite or virus in culture; type: cell-based; conditions: 24 h, read-out: Minimum Inhibitory Concentration, MIC
[10] = test system: Staphylococcus aureus 703 (MRSA); assay: microbe, parasite or virus in culture; type: cell-based; conditions: 24 h, read-out: Minimum Inhibitory Concentration, MIC
[11] = test system: Staphylococcus aureus 704 (MRSA); assay: microbe, parasite or virus in culture; type: cell-based; conditions: 24 h, read-out: Minimum Inhibitory Concentration, MIC
[12] = test system: Staphylococcus aureus 705 (MRSA); assay: microbe, parasite or virus in culture; type: cell-based; conditions: 24 h, read-out: Minimum Inhibitory Concentration, MIC
[13] = test system: Streptococcus pneumoniae 6303 (PRSP); assay: microbe, parasite or virus in culture; type: cell-based; conditions: 24 h, read-out: Minimum Inhibitory Concentration, MIC
[14] = test system: Streptococcus pneumoniae 62; assay: microbe, parasite or virus in culture; type: cell-based; conditions: 37° C., 24 h, read-out: Minimum Inhibitory Concentration, MIC
[15] = test system: Streptococcus pneumoniae 6301; assay: microbe, parasite or virus in culture; type: cell-based; conditions: 37° C., 24 h, read-out: Minimum Inhibitory Concentration, MIC
[16] = test system: Streptococcus pneumoniae M2; assay: microbe, parasite or virus in culture; type: cell-based; conditions: 37° C., 24 h, read-out: Minimum Inhibitory Concentration, MIC
Pyogenic Streptococcus = assay: microbe, parasite or virus in culture; type: cell-based; conditions: 37° C., 24 h, read-out: Minimum Inhibitory Concentration, MIC
[17] = test system: Streptococcus agalactiae B; assay: microbe, parasite or virus in culture; type: cell-based; conditions: 37° C., 24 h, read-out: Minimum Inhibitory Concentration, MIC
green Streptococcus 1009 = assay: microbe, parasite or virus in culture; type: cell-based; conditions: 37° C., 24 h, read-out: Minimum Inhibitory Concentration, MIC
[18] = test system: Streptococcus bovis 10035; assay: microbe, parasite or virus in culture; type: cell-based; conditions: Streptococcus equinus, 37° C., 24 h, read-out: Minimum Inhibitory Concentration, MIC
Streptococcus 10342 = assay: MIC broth microdilution; type: cell-based; conditions: 37° C., 24 h, read-out: Minimum Inhibitory Concentration, MIC
[19] = test system: Streptococcus pneumoniae 10351; assay: microbe, parasite or virus in culture; type: cell-based; conditions: 37° C., 24 h, read-out: Minimum Inhibitory Concentration, MIC
Bacillus anthracis 1 = assay: microbe, parasite or virus in culture; type: cell-based; conditions: Bacillus anthracis, 1, 24 h, read-out: Minimum Inhibitory Concentration, MIC
[20] = test system: Corynebacterium diphtheriae; assay: microbe, parasite or virus in culture; type: cell-based; conditions: 37° C., 24 h, read-out: Minimum Inhibitory Concentration, MIC
Clostridium tetani = assay: microbe, parasite or virus in culture; type: cell-based; conditions: 24 h
Clostridium perfringens = assay: microbe, parasite or virus in culture; type: cell-based; conditions: 24 h, read-out: Minimum Inhibitory Concentration, MIC
Oral candidiasis = assay: MIC broth microdilution; type: cell-based; conditions: Microorganism 32, Oral candidiasis; 37° C., 24 h; read-out: Minimum Inhibitory Concentration, MIC
MIC broth microdilution = type: cell-based; conditions: Microorganism 33, Dermatophytosis; 37° C., 24 h; read-out: Minimum Inhibitory Concentration, MIC
MRSA 2152 = assay: Antibacterial studies in vivo, survival of mice infected with MRSA 2152; conditions: dose mg/kg: ciprofloxacin 20, 3: 30, 7: 40, 21: 50, 33: 25, 70: 70
[21] = read-out: Minimum Inhibitory Concentration, MIC, Microorganism 29, Clostridium tetani, 37° C.
[22] = read-out: Minimum Inhibitory Concentration, MIC, Microorganism 30, Clostridium tetani (second line of that name), 37° C.

SMILES	MIC (Bacillus cereus 2) [µM]	MIC (Bacillus cereus 246) [µM]	MIC (Bacillus subtilis 82) [µM]	MIC (Bacillus subtilis 168) [µM]	MIC [1] [µM]	MIC [2] [µM]	MIC [3] [µM]	MIC [4] [µM]	MIC [5] [µM]	MIC [6] [µM]	MIC [7] [µM]	MIC [8] [µM]	MIC [9] [µM]	MIC [10] [µM]	MIC [11] [µM]	MIC [12] [µM]	MIC [13] [µM]	MIC [14] [µM]	MIC [15] [µM]	MIC [16] [µM]	other results
O=c1[nH]c(-c2ccc(C(F)(F)F)cc2)nc2cc(Cl)ccc12 [Compound 14]	20.2 (≈ 6.57 µg/mL)	30.2 (≈ 9.79 µg/mL)	10.3 (≈ 3.35 µg/mL)	12.5 (≈ 4.06 µg/mL)	15 (≈ 4.87 µg/mL)	21.5 (≈ 6.98 µg/mL)	13.5 (≈ 4.38 µg/mL)	122 (≈ 39.7 µg/mL)	221 (≈ 71.8 µg/mL)	130 (≈ 42.3 µg/mL)	120 (≈ 39.1 µg/mL)	6.31 (≈ 2.05 µg/mL)	120 (≈ 39.1 µg/mL)	125 (≈ 40.6 µg/mL)	160 (≈ 52 µg/mL)	210 (≈ 68.3 µg/mL)	250 (≈ 81.2 µg/mL)	100 (≈ 32.5 µg/mL)	141 (≈ 45.7 µg/mL)	120 (≈ 39 µg/mL)	inhibition of growth (conclusion from MICs) (Gram-positive Bacteria): significantly inhibited the growth; MIC (Pyogenic Streptococcus): 132 µM (≈ 43 µg/mL); MIC [17]: 225 µM (≈ 73.1 µg/mL); MIC (green Streptococcus 1009): 126 µM (≈ 40.7 µg/mL); MIC [18]: 100 µM (≈ 32.6 µg/mL); MIC (Streptococcus 10342): 170 µM (≈ 55.4 µg/mL); MIC [19]: 104 µM (≈ 33.6 µg/mL); MIC (Bacillus anthracis 1): 122 µM (≈ 39.8 µg/mL); MIC [20]: 135 µM (≈ 43.9 µg/mL); MIC (Clostridium tetani; [21]): 160 µM (≈ 52 µg/mL); MIC (Clostridium tetani; [22]): 120 µM (≈ 39.1 µg/mL); MIC (Clostridium perfringens): 125 µM (≈ 40.6 µg/mL); MIC (Oral candidiasis): 133 µM (≈ 43.2 µg/mL); MIC (MIC broth microdilution): 121 µM (≈ 39.4 µg/mL)
CCc1nn2c(=O)c(C)c(-c3ccc(C(F)(F)F)cc3)[nH]c2c1-c1ccc(Cl)cc1Cl [Compound 23]	110 (≈ 51.5 µg/mL)	200 (≈ 93.4 µg/mL)	110 (≈ 51.4 µg/mL)	101 (≈ 47.2 µg/mL)	220 (≈ 103 µg/mL)	130 (≈ 60.8 µg/mL)	140 (≈ 65.4 µg/mL)	215 (≈ 100 µg/mL)	80.5 (≈ 37.5 µg/mL)	152 (≈ 71 µg/mL)	132 (≈ 61.3 µg/mL)	282 (≈ 131 µg/mL)	120 (≈ 56.2 µg/mL)	131 (≈ 60.9 µg/mL)	180 (≈ 84 µg/mL)	150 (≈ 70 µg/mL)	231 (≈ 108 µg/mL)	160 (≈ 74.8 µg/mL)	170 (≈ 79.4 µg/mL)	200 (≈ 93.4 µg/mL)	MIC (Pyogenic Streptococcus): 231 µM (≈ 108 µg/mL); MIC [17]: 200 µM (≈ 93.5 µg/mL); MIC (green Streptococcus 1009): 210 µM (≈ 98.1 µg/mL); MIC [18]: 153 µM (≈ 71.3 µg/mL); MIC (Streptococcus 10342): 123 µM (≈ 57.4 µg/mL); MIC [19]: 155 µM (≈ 72.4 µg/mL); MIC (Bacillus anthracis 1): 166 µM (≈ 77.6 µg/mL); MIC [20]: 162 µM (≈ 75.3 µg/mL); MIC (Clostridium tetani; [21]): 80.2 µM (≈ 37.4 µg/mL); MIC (Clostridium tetani; [22]): 50.2 µM (≈ 23.4 µg/mL); MIC (Clostridium perfringens): 30.6 µM (≈ 14.3 µg/mL); MIC (Oral candidiasis): 122 µM (≈ 56.9 µg/mL); MIC (MIC broth microdilution): 56.1 µM (≈ 26.2 µg/mL)
Cc1nn2c(=O)c(C)c(-c3ccc(C#N)cc3)[nH]c2c1-c1ccc(C(F)(F)F)cc1 [Compound 33]	1.25 (≈ 0.51 µg/mL)	1.25 (≈ 0.51 µg/mL)	0.31 (≈ 0.127 µg/mL)	1.25 (≈ 0.51 µg/mL)	2.5 (≈ 1.02 µg/mL)	2.5 (≈ 1.02 µg/mL)	5 (≈ 2.04 µg/mL)	2.5 (≈ 1.02 µg/mL)	0.63 (≈ 0.257 µg/mL)	5 (≈ 2.04 µg/mL)	2.5 (≈ 1.02 µg/mL)	0.63 (≈ 0.257 µg/mL)	0.55 (≈ 0.225 µg/mL)	0.42 (≈ 0.172 µg/mL)	0.28 (≈ 0.114 µg/mL)	0.33 (≈ 0.135 µg/mL)	1.3 (≈ 0.531 µg/mL)	0.63 (≈ 0.257 µg/mL)	2.5 (≈ 1.02 µg/mL)	1.25 (≈ 0.51 µg/mL)	MIC (Pyogenic Streptococcus): 0.63 µM (≈ 0.257 µg/mL); MIC [17]: 0.56 µM (≈ 0.229 µg/mL); MIC (green Streptococcus 1009): 0.3 µM (≈ 0.123 µg/mL); MIC [18]: 10.5 µM (≈ 4.29 µg/mL); MIC (Streptococcus 10342): 0.3 µM (≈ 0.123 µg/mL); MIC [19]: 0.04 µM (≈ 0.0163 µg/mL); MIC (Bacillus anthracis 1): 35.6 µM (≈ 14.5 µg/mL); MIC [20]: 80.3 µM (≈ 32.8 µg/mL); MIC (Clostridium tetani; [21]): 60.3 µM (≈ 24.6 µg/mL); MIC (Clostridium tetani; [22]): 50.6 µM (≈ 20.7 µg/mL); MIC (Clostridium perfringens): 31.2 µM (≈ 12.7 µg/mL); MIC (Oral candidiasis): 126 µM (≈ 51.3 µg/mL); MIC (MIC broth microdilution): 53.6 µM (≈ 21.9 µg/mL); Survival rate (%) (life prolongation rate) (MRSA 2152; (survival days of test group − blank group)/blank group ×100%, MRSA 2152 mice, tail vein): 169.2%; Survival (MRSA 2152; mice inoculated intraperitoneally with MRSA 2152, test compound by tail vein, repeated after six hours, saline 1.3 days): 3.5 days
Nc1nc(-c2ccccc2)nc2c1cnn2-c1ccccc1 [Compound 38]	124 (≈ 35.5 µg/mL)	154 (≈ 44.3 µg/mL)	120 (≈ 34.5 µg/mL)	212 (≈ 61.1 µg/mL)	145 (≈ 41.7 µg/mL)	106 (≈ 30.6 µg/mL)	108 (≈ 31.2 µg/mL)	116 (≈ 33.2 µg/mL)	151 (≈ 43.4 µg/mL)	150 (≈ 43.2 µg/mL)	160 (≈ 46.1 µg/mL)	100 (≈ 28.8 µg/mL)	210 (≈ 60.4 µg/mL)	215 (≈ 61.8 µg/mL)	160 (≈ 46.1 µg/mL)	210 (≈ 60.4 µg/mL)	125 (≈ 35.9 µg/mL)	140 (≈ 40.4 µg/mL)	141 (≈ 40.4 µg/mL)	156 (≈ 44.9 µg/mL)	MIC (Pyogenic Streptococcus): 126 µM (≈ 36.3 µg/mL); MIC [17]: 105 µM (≈ 30.2 µg/mL); MIC (green Streptococcus 1009): 101 µM (≈ 29.1 µg/mL); MIC [18]: 121 µM (≈ 34.9 µg/mL); MIC (Streptococcus 10342): 131 µM (≈ 37.7 µg/mL); MIC [19]: 136 µM (≈ 39.2 µg/mL); MIC (Bacillus anthracis 1): 266 µM (≈ 76.4 µg/mL); MIC [20]: 150 µM (≈ 43.2 µg/mL); MIC (Clostridium tetani; [21]): 160 µM (≈ 46.1 µg/mL); MIC (Clostridium tetani; [22]): 120 µM (≈ 34.6 µg/mL); MIC (Clostridium perfringens): 125 µM (≈ 35.9 µg/mL); MIC (Oral candidiasis): 150 µM (≈ 43.2 µg/mL); MIC (MIC broth microdilution): 121 µM (≈ 34.8 µg/mL)
